S35 data for 13 molecules are collected here from patent publication US9730937B2, “RAF kinase modulator compounds and methods of use thereof” (AMBIT BIOSCIENCES CORPORATION, priority 2008, dated 2017).

One assay deals with panel of 290 distinct kinases (321 in the larger panel), excluding mutant variants. Conditions: asterisk: panel of 321 distinct kinases.
With `COc1cc2ncnc(Oc3cccc(NC(=O)Nc4cc(C(F)(F)F)no4)c3)c2cc1OC` [Ex 254, 1-(3-(6,7-dimethoxyquinazolin-4-yloxy)phenyl)-3-(3-(trifluoromethyl)isoxazol-5-yl)urea], the S35 result is recorded as “C* (0.20 < C ≦ 0.40)”.

For the molecule `COCCOc1cc2ncnc(Sc3cccc(NC(=O)Nc4cc(C(C)C)on4)c3)c2cc1OC` [Ex 232, 1-(5-isopropylisoxazol-3-yl)-3-(3-(6-methoxy-7-(2-methoxyethoxy)quinazolin-4-ylthio)phenyl)urea], the S35 entry is reported as “C* (0.20 < C ≦ 0.40)”.

Still in this assay, the particulars now being: kinase selectivity score, 290 distinct kinases; class symbols.
In the case of `COc1cc2ncnc(Oc3cccc(NC(=O)Nc4cc(C(C)(C)F)no4)c3)c2cc1OC` [Ex 126, 1-(3-(6,7-dimethoxyquinazolin-4-yloxy)phenyl)-3-(3-(2-fluoropropan-2-yl)isoxazol-5-yl)urea], the S35 result is given as “C (0.20 < C ≦ 0.40)”.

Still in this assay, the particulars now being: kinase selectivity score, value marked * (larger kinase panel); class symbols.
`COc1cc2ncnc(Oc3cccc(NC(=O)Nc4ccc(C(F)(F)F)c(F)c4)c3)c2cc1OC` [Ex 150, 1-(3-(6,7-dimethoxyquinazolin-4-yloxy)phenyl)-3-(3-fluoro-4-(trifluoromethyl)phenyl)urea]: the S35 entry is “C* (0.20 < C ≦ 0.40)”.

Still in this assay, the particulars now being: no asterisk: panel of 290 distinct kinases.
`COc1cc2ncnc(Oc3cccc(NC(=O)Nc4cc(C(C)(C)C)nn4-c4cccc(C)c4)c3)c2cc1OC` [Ex 285, 1-(3-tert-butyl-1-m-tolyl-1H-pyrazol-5-yl)-3-(3-(6,7-dimethoxyquinazolin-4-yloxy)phenyl)urea]: the S35 entry is reported as “D (D > 0.40)”.

For the molecule `COc1cc2ncnc(Sc3cccc(NC(=O)Nc4cc(C(C)(C)C)nn4-c4cccc(C)c4)c3)c2cc1OC` [Ex 286, 1-(3-tert-butyl-1-m-tolyl-1H-pyrazol-5-yl)-3-(3-(6,7-dimethoxyquinazolin-4-ylthio)phenyl)urea], the S35 result is reported as “D (D > 0.40)”.

As to `COc1cc2ncnc(Oc3cc(NC(=O)Nc4cc(C(F)(F)F)nn4-c4ccccc4)c(F)cc3F)c2cc1OC` [Ex 271, 1-(5-(6,7-dimethoxyquinazolin-4-yloxy)-2,4-difluorophenyl)-3-(1-phenyl-3-(trifluoromethyl)-1H-pyrazol-5-yl)urea], the S35 result is given as “D (D > 0.40)”.

As to `COc1cc2ncnc(Oc3cc(NC(=O)Nc4cc(C(C)(C)C)on4)c(F)cc3F)c2cc1OC` [Ex 270, 1-(5-tert-butylisoxazol-3-yl)-3-(5-(6,7-dimethoxyquinazolin-4-yloxy)-2,4-difluorophenyl)urea], the S35 entry is reported as “D (D > 0.40)”.

Regarding `CCOc1cc2c(Oc3cccc(NC(=O)Nc4cc(C(C)(C)F)no4)c3)ncnc2cc1OC` [Ex 392, 1-(3-(6-ethoxy-7-methoxyquinazolin-4-yloxy)phenyl)-3-(3-(2-fluoropropan-2-yl)isoxazol-5-yl)urea], the S35 result is reported as “C (0.20 < C ≦ 0.40)”.

For `COc1cc2c(Oc3cccc(NC(=O)Nc4cc(C(F)(F)F)nn4-c4ccccc4)c3)ncnc2cc1OCCN1CCOCC1` [Ex 396, 1-(3-(6-Methoxy-7-(2-morpholinoethoxy)quinazolin-4-yloxy)phenyl)-3-(1-phenyl-3-(trifluoromethyl)-1H-pyrazol-5-yl)urea], the S35 entry is “C (0.20 < C ≦ 0.40)”.

`COc1cc2ncnc(Oc3cccc(NC(=O)Nc4cc(C(C)(CF)CF)on4)c3F)c2cc1OC` [Ex 297, 1-(5-(1,3-difluoro-2-methylpropan-2-yl)isoxazol-3-yl)-3-(3-(6,7-dimethoxyquinazolin-4-yloxy)-2-fluorophenyl)urea]: the S35 result is “C (0.20 < C ≦ 0.40)”.

In the case of `COc1cc2ncnc(Oc3cccc(NC(=O)Nc4cc(C(C)(C)C)nn4-c4ccccc4)c3C)c2cc1OC` [Ex 289, 1-(3-tert-butyl-1-phenyl-1H-pyrazol-5-yl)-3-(3-(6,7-dimethoxyquinazolin-4-yloxy)-2-methylphenyl)urea], the S35 result is on record as “C (0.20 < C ≦ 0.40)”.

Regarding `COc1cc2ncnc(Sc3cccc(NC(=O)Nc4cc(C(C)(C)C)nn4Cc4ccccc4)c3)c2cc1OC` [Ex 358, 1-(1-benzyl-3-tert-butyl-1H-pyrazol-5-yl)-3-(3-(6,7-dimethoxyquinazolin-4-ylthio)phenyl)urea], the S35 entry was “C (0.20 < C ≦ 0.40)”.
